Data taken from publication PMC12775434, “Ultra-large virtual screening unveils potent agonists of the neuromodulatory orphan receptor GPR139” (Nature Communications, 2025).
“And” between values parts separate entries of the source, which are not always exact repeats. Identical values can stand only once.

Tests used:
[1] = Metabolic stability in the presence of mouse liver microsomes; assay type: in vitro ADME; details: pH 7.4, read-out: intrinsic clearance, CLint
Description: Metabolic stability was determined in 0.5 mg/ml mouse liver microsomes at a compound concentration of 1 μM in 100 mM KPO4 buffer, pH 7.4, in a total incubation volume of 500 μl. The reaction was initiated by addition of 1 mM NADPH. At various incubation times, i.e., at 0, 5, 10, 20, 40, and 60 min, a sample was withdrawn from the incubation, and the reaction was terminated by addition of cold acetonitrile with warfarin as an internal standard. The amount of parent compound remaining was analyzed by LC-MS/MS[70].

C57BL/6 J mice = experiment: Open-field test (locomotion and thigmotaxis); assay type: in vivo, mouse; design: Total distance travelled in 50 mins (Figure 6a) / Open-field test, locomotion over time (sheet 6b) / Open-field test, thigmotaxis, whole session (sheet 6c): unit not given here; details: for Total distance travelled in 50 mins (Figure 6a) / Open-field test, locomotion over time (sheet 6b) / Open-field test, thigmotaxis over time (sheet 6d) / Open-field test, thigmotaxis, whole session (sheet 6c): individual mice
Description: Adult […] C57BL/6 J mice (3-6 months old) were provided by Charles River. Both females and males (15 females and 9 males) were used in this study. Sex was evenly distributed across experimental groups. Sex was not considered in the study design or analysis, as no reports indicate differential expression levels of GPR139 between male and female mice. They were housed with ad libitum food and water, in a temperature and humidity-controlled environment under a standard 12 h light/dark cycle. The experiments were performed in agreement with the European Council Directive (86/609/EEC) and approved by the local Animal Ethics Committee at Karolinska Institute (3218-2022). All efforts were made to minimize suffering and the number of animals used. Mice were treated with either 10% DMSO + 10% solutol HS-15 + 80% saline (vehicle, n = 8), compound 1.5 (n = 8, 30 mg/kg i.p.), or JNJ-63533054 (n = 8, 30 mg/kg i.p.), both of which were dissolved in 10% DMSO + 10% solutol HS-15 + 80% saline. Mice were placed in an open field arena 10 min after the injection and recorded for 50 min. Total distance travelled and the time spent in the periphery arena were measured using an automated video tracking system (EthoVision XT 11.5; Noldus). One-way ANOVA followed by Dunnett’s multiple comparisons test and Two-way ANOVA followed by Tukey’s multiple comparisons test were used. Brain and blood samples were taken immediately after the locomotion test. The brain samples were quickly frozen, and blood was drawn from the cervical vein upon decapitation into EP tubes. The samples were immediately centrifuged for 10 min at 3000 × g at 4 °C, and the plasma was transferred into clean polypropylene tubes. All samples were stored at −80 °C before analysis.

| microsomal CLint at 1 μM [1] | SMILES | Total distance travelled in 50 mins (Figure 6a) (C57BL/6 J mice; 30 mg/kg i.p.) | Open-field test, locomotion over time (sheet 6b) (C57BL/6 J mice; 5 mins) | Open-field test, thigmotaxis over time (sheet 6d) (C57BL/6 J mice; 5 mins, in % (unit assumed)) | Open-field test, locomotion over time (sheet 6b) (C57BL/6 J mice; 10 mins) | Open-field test, thigmotaxis over time (sheet 6d) (C57BL/6 J mice; 10 mins, in % (unit assumed)) | Open-field test, locomotion over time (sheet 6b) (C57BL/6 J mice; 15 mins) | Open-field test, thigmotaxis over time (sheet 6d) (C57BL/6 J mice; 15 mins) | Open-field test, locomotion over time (sheet 6b) (C57BL/6 J mice; 20 mins) | Open-field test, thigmotaxis over time (sheet 6d) (C57BL/6 J mice; 20 mins) | Open-field test, locomotion over time (sheet 6b) (C57BL/6 J mice; 25 mins) | Open-field test, thigmotaxis over time (sheet 6d) (C57BL/6 J mice; 25 mins) | Open-field test, locomotion over time (sheet 6b) (C57BL/6 J mice; 30 mins) | Open-field test, thigmotaxis over time (sheet 6d) (C57BL/6 J mice; 30 mins) | Open-field test, locomotion over time (sheet 6b) (C57BL/6 J mice; 35 mins) | Open-field test, thigmotaxis over time (sheet 6d) (C57BL/6 J mice; 35 mins) | Open-field test, locomotion over time (sheet 6b) (C57BL/6 J mice; 40 mins) | Open-field test, locomotion over time (sheet 6b) (C57BL/6 J mice; 45 mins) | Open-field test, thigmotaxis over time (sheet 6d) (C57BL/6 J mice; 45 mins) | Open-field test, locomotion over time (sheet 6b) (C57BL/6 J mice; 50 mins) | also measured |
| --- | --- | --- | --- | --- | --- | --- | --- | --- | --- | --- | --- | --- | --- | --- | --- | --- | --- | --- | --- | --- | --- |
| 1370 µL/min/mg | Cc1cscc1-c1nc(CC(=O)N[C@@H](C)c2ccccc2)no1 [1.1(S)] |  |  |  |  |  |  |  |  |  |  |  |  |  |  |  |  |  |  |  |  |
| 46 µL/min/mg | Cc1nocc1-c1nc(CC(=O)NC(C)c2ccccc2)no1 (stereo not drawn) [Compound 1.5, CC(C1=CC=CC=C1)NC(CC2=NOC(C3=CON=C3C)=N2)=O] | 3619.7 and 1516.14 and 932.636 and 2008.89 and 11482.8 and 3961.35 and 3158.61 and 1417.56 | 1534.71 and 1388.77 and 1295.98 and 638.887 and 1035.03 and 624.833 and 367.922 and 520.924 | 58.4267 and 77.1733 and 70.76 and 76.5333 and 44.5867 and 92.2133 and 78.64 and 98.2267 | 944.829 and 1045.75 and 698.474 and 211.083 and 1038.45 and 297.32 and 169.554 and 251.751 | 57.6133 and 89.2933 and 80.9867 and 94.6933 and 45.7733 and 98.64 and 97.4267 and 99.88 | 724.917 and 289.775 and 194.585 and 64.0034 and 579.982 and 38.8587 and 84.0131 and 202.975 | 79.1867 and 87.4267 and 100 (4×) and 67.5067 and 98.8533 | 43.478 and 341.627 and 152.166 and 3.91 and 301.879 and 49.2379 and 23.1583 and 69.7204 | 100 (5×) and 93.36 and 86.0667 and 98.92 | 1347.85 and 148.793 and 124.524 and 4.2615 and 37.5095 and 24.1112 and 17.1945 and 57.9976 | 75.1067 and 91.4267 and 100 (6×) | 1735.43 and 147.426 and 152.999 and 41.6297 and 15.7939 and 39.7283 and 43.7378 and 9.443 | 59.8267 and 99.36 and 97.2933 and 98.9733 and 100 (3×) and 97.7867 | 1485.83 and 64.3909 and 126.684 and 26.842 and 6.448 and 42.921 and 11.8566 and 37.4144 | 59.8533 and 100 (6×) and 99.44 | 1609.58 and 127.219 and 108.3 and 183.443 and 63.0073 and 201.855 and 59.5513 and 1.7683 | 1163.43 and 158.947 and 183.999 and 73.8724 and 168.393 and 37.8929 and 22.5543 and 382.596 | 64.4933 and 94.68 and 93.2533 and 100 (4×) and 88.1333 | 892.776 and 248.648 and 120.895 and 169.632 and 373.205 and 159.384 and 133.094 and 474.296 | Open-field test, thigmotaxis over time (sheet 6d) (C57BL/6 J mice; 40 mins, in % (unit assumed)): 53.72 and 93.1467 and 46.96 and 98.3067 and 97.52 and 91.5467 and 99.2 and 100; Open-field test, thigmotaxis over time (sheet 6d) (C57BL/6 J mice; 50 mins): 89.68 and 89.52 and 96.2267 and 100 (3×) and 96.5733 and 99.2533; Open-field test, thigmotaxis, whole session (sheet 6c) (C57BL/6 J mice): 98.132 and 97.2307 and 99.696 and 69.7907 and 91.5387 and 88.492 and 96.8507 and 82.616 |
|  | CC(NC(=O)CNC(=O)c1cccc(Cl)c1)c1ccccc1 (stereo not drawn) [JNJ-63533054, reference compound] | 3359.39 and 1792.13 and 2582.49 and 3979.72 and 2080.85 and 9982.78 and 3772.48 and 918.903 | 932.272 and 989.458 and 1696.51 and 1348.86 and 505.51 and 1391.08 and 1396.99 and 852.786 | 70.24 and 93.24 and 86.6 and 72.9333 and 95.6533 and 59.4533 and 79.16 and 62.2 | 809.521 and 300.737 and 1208.9 and 562.14 and 33.766 and 906.8 and 199.588 and 129.938 | 97.5867 and 98.7467 and 63.5867 and 94.9733 and 100 and 78.9333 and 98.0533 and 99.9733 | 194.752 and 21.7885 and 924.739 and 354.313 and 27.675 and 233.464 and 23.6513 and 7.655 | 98.8933 and 100 (4×) and 93.1733 and 95.84 and 98.8533 | 171.669 and 49.3834 and 612.36 and 167.407 and 0 and 187.813 and 0.8234 and 102.119 | 99.9467 and 100 (4×) and 97.5333 and 99.0133 and 99.7333 | 630.708 and 147.757 and 783.223 and 246.73 and 0.6166 and 0.4386 and 0.4195 and 141.542 | 94.8 and 100 (5×) and 94.6667 and 96.8533 | 4.719 and 265.963 and 938.142 and 27.3973 and 11.6817 and 61.4941 and 0 and 205.37 | 100 (5×) and 97.44 and 85.8667 and 98.56 | 3.326 and 8.572 and 1042.9 and 433.751 and 7.486 and 2.001 and 0.4323 and 246.216 | 100 (5×) and 84.7333 and 92.4267 and 94.5867 | 521.05 and 1.596 and 845.25 and 8.083 and 7.72 and 4.549 and 0.4103 and 0.9443 | 294.43 and 290.485 and 1172.17 and 477.116 and 34.0014 and 4.204 and 168.331 and 0.6994 | 98.6133 and 97.52 and 87.88 and 86.5333 and 99.8133 and 100 (2×) and 97.44 | 417.274 and 5.107 and 758.587 and 146.686 and 290.447 and 567.543 and 1.48 and 895.221 | thigmotaxis (time in the periphery) (C57BL/6 J mice; 30 mg/kg i.p., vs vehicle): spent more time in the periphery compared to the vehicle group; total distance travelled in the open field arena (C57BL/6 J mice; 30 mg/kg i.p., vs vehicle): results similar to those obtained for JNJ-63533054; Open-field test, thigmotaxis over time (sheet 6d) (C57BL/6 J mice; 40 mins): 97.24 and 100 (6×) and 95.16; Open-field test, thigmotaxis over time (sheet 6d) (C57BL/6 J mice; 50 mins): 94.5733 and 100 (2×) and 95.4133 and 11.7333 and 93.0667 and 88.9333 and 83.48; Open-field test, thigmotaxis, whole session (sheet 6c) (C57BL/6 J mice): 97.4653 and 94.024 and 95.1893 and 98.6947 and 88.4613 and 85.0307 and 98.8533 and 92.4467 |
